In patent US20210038607A1, “OXADIAZOLYLTHIOPHENE DERIVATIVES USEFUL AS HISTONE DEACETYLASE INHIBITORS” (Karus Therapeutics Limited, priority 2018, published 2021) one finds IC50 data, which are given here for five compounds.

Test [1] concerns the target T1, Human HDAC1 (Homo sapiens, UniProt Q13547).
T1 construct: full length with C-terminal His-tag and C-terminal FLAG-tag; His (C); FLAG (C); host or cells: baculovirus expression system
Description: HDAC1 biochemical assay, AMC-labeled peptide substrate. The settings on record: read-out: HDAC Isoform IC50 (nM) 1. Summed up: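 Two-step fluorogenic read: HDAC1 deacetylates 50 μM acetyl-lysine AMC peptide RHKK(Ac)AMC for 1 h at 30° C (pH 8.0, 1% DMSO, with compound), then developer digests the product for fluorescence at Ex/Em 360/460. Enzyme is full-length human, His/FLAG-tagged, insect-cell expressed, at 0.3 ng/ul.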

The target of test [2] is T2, Human HDAC4 (Homo sapiens, UniProt P56524).
T2 construct: amino acids 627-1085 with N-terminal GST tag; GST (N); host or cells: baculovirus expression system
T2 sequence (P56524 627-1084 limits assumed): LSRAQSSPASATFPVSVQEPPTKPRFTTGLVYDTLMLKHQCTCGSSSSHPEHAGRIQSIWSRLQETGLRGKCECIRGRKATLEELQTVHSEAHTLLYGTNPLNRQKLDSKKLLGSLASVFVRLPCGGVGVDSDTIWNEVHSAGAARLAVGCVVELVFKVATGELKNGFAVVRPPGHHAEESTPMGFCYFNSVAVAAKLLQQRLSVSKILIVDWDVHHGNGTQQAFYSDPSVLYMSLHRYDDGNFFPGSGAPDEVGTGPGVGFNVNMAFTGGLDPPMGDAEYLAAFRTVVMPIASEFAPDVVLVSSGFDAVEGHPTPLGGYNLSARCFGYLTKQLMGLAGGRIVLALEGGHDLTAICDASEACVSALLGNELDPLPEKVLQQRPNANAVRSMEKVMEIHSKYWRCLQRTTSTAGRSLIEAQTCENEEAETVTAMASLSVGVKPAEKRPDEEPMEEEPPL
Description: HDAC4 biochemical assay, class IIa-specific substrate. The settings on record: read-out: HDAC Isoform IC50 (nM) 4. Summed up:
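Two-step fluorogenic read-out: deacetylated BOC-Lys(trifluoroacetyl)-AMC (50 μM) was digested by developer and measured at Ex/Em 360/460. Deacetylation by 0.004 ng/ul HDAC4 (aa 627-1085, N-terminal GST) ran 30 min at room temperature, pH 8.0 Tris buffer, 1 mg/mL BSA, 1% DMSO.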

For test [3], the target named is T3, Human HDAC5 (Homo sapiens, UniProt Q9UQL6).
T3 construct: full length with C-terminal His tag, MW=51.1 kDa; His (C); host or cells: baculovirus expression system
T3 sequence (Q9UQL6 656-1122 limits assumed): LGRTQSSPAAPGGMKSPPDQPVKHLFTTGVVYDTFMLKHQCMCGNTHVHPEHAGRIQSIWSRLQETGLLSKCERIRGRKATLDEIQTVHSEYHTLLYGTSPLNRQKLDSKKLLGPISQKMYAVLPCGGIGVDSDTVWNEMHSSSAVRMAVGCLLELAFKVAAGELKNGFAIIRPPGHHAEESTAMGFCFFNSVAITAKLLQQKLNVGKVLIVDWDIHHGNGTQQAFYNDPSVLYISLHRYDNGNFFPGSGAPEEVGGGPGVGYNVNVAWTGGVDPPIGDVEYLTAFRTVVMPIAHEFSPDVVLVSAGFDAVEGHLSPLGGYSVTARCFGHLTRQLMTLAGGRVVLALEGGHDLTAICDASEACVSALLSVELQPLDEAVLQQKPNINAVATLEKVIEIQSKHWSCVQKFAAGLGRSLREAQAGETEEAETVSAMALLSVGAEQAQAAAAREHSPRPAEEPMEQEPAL
In words: HDAC5 biochemical assay, class IIa-specific substrate. To be noted: read-out: HDAC Isoform IC50 (nM) 5. The gist of the method: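 Two-step fluorogenic read-out: deacetylated trifluoroacetyl-lysine AMC substrate (50 μM) digested by developer, measured at Ex/Em 360/460. Deacetylation step: 0.05 ng/ul His-tagged full-length baculoviral enzyme with compound, 30 min, room temperature, pH 8.0 Tris with 1 mg/mL BSA and 1% DMSO.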

The target in test [4] is T4, Recombinant human HDAC6 (Homo sapiens, UniProt Q9UBN7).
T4 construct: full length, MW=159 kDa; GST (N); host or cells: Sf9 insect cells (baculovirus)
T4 sequence (Q9UBN7 1-1215): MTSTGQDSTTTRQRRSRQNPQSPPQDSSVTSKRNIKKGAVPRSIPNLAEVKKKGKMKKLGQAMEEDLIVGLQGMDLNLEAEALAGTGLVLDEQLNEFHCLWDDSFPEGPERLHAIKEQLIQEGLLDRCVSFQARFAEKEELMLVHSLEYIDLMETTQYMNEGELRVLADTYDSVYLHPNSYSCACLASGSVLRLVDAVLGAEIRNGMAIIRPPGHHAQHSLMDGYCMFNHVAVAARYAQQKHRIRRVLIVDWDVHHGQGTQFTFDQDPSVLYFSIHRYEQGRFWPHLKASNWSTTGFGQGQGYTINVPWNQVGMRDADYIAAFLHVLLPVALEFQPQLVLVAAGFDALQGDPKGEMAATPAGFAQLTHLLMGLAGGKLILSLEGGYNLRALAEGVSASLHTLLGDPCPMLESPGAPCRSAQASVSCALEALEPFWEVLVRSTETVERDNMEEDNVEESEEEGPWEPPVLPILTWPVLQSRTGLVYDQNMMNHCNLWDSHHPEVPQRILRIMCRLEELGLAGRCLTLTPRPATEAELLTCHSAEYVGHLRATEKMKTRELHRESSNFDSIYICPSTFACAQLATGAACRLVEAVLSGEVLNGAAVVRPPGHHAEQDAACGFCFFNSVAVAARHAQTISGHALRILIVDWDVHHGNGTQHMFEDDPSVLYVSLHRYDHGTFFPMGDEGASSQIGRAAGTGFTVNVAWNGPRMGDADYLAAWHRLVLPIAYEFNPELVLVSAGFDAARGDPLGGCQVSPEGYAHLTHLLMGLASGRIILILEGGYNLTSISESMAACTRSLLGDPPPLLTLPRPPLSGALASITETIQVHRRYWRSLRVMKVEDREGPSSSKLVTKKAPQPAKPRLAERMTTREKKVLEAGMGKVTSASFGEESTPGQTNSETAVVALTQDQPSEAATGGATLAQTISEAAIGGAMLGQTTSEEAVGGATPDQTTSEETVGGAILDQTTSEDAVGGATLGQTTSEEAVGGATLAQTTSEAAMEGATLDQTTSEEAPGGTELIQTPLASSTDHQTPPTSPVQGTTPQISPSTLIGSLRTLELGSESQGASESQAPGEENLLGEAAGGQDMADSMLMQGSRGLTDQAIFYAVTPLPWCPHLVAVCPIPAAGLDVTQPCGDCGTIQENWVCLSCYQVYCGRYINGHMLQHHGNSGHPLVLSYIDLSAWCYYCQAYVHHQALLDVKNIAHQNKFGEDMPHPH
In words: HDAC6 biochemical assay, AMC-labeled peptide substrate. To be noted: HDAC6; read-out: HDAC Isoform IC50 (nM) 6. Summed up: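 Two-step fluorogenic read-out: enzyme deacetylates 50 μM RHKK(Ac)AMC for 1 h at 30° C in pH 8.0 Tris buffer with BSA and 1% DMSO, then developer cleavage gives signal at Ex 360/Em 460. Enzyme: 0.3 ng/ul recombinant full-length human HDAC6, GST-tagged, Sf9-expressed.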

Test [5] concerns the target T5, Human HDAC7 (Homo sapiens, UniProt Q8WUI4).
T5 construct: (a.a. 518-end) with N-terminal GST tag; GST (N); host or cells: baculovirus expression system
T5 sequence (Q8WUI4 518-952 limits assumed): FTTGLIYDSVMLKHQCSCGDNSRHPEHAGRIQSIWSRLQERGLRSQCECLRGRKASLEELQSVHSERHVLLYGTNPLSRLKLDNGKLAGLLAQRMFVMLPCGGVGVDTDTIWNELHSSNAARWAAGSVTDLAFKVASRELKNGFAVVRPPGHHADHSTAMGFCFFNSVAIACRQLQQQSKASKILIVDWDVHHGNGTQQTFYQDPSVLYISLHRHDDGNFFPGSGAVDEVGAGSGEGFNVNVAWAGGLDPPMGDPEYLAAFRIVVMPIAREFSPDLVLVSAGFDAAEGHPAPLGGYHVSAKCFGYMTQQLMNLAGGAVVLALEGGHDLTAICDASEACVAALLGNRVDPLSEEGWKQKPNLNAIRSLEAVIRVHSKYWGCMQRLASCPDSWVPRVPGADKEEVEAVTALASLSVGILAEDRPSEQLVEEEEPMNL
Description: HDAC7 biochemical assay, class IIa-specific substrate. To be noted: read-out: HDAC Isoform IC50 (nM) 7. Summed up: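 Two-step fluorogenic readout: class IIa-selective trifluoroacetyl-lysine AMC substrate (50 μM) deacetylated by N-terminal GST-HDAC7 fragment (0.001 ng/ul), then digested by developer, Ex/Em 360/460. Reaction: 30 min, room temperature, Tris-HCl pH 8.0, NaCl/KCl/MgCl2, 1 mg/mL BSA, 1% DMSO.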

The target of test [6] is T6, Human HDAC9 (Homo sapiens, UniProt Q9UKV0).
T6 construct: amino acids 604-1066 with C-terminal His tag; His (C); host or cells: baculovirus expression system
T6 sequence (Q9UKV0 604-1066 isoform Q9UKV0-5): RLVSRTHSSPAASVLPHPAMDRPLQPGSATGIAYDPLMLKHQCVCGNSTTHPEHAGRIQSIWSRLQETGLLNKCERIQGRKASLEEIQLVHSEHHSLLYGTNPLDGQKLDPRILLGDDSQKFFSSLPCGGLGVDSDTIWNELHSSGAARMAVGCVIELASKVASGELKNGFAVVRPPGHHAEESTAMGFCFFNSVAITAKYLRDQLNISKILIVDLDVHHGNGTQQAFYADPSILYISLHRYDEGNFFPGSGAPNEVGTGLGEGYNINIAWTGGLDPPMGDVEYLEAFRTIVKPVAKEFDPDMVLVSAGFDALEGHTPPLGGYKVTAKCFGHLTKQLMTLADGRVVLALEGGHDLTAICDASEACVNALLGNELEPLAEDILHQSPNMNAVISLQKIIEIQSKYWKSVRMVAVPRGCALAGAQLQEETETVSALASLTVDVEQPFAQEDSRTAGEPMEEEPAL
In words: HDAC9 biochemical assay, class IIa-specific substrate. To be noted: read-out: HDAC Isoform IC50 (nM) 9. Summed up: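 HDAC9 residues 604-1066 (C-terminal His tag, baculovirus-expressed) at 0.06 ng/ul with 50 μM class IIa substrate Boc-Lys(trifluoroacetyl)-AMC in Tris-HCl pH 8.0 buffer with BSA and 1% DMSO. 30 min at room temperature, then developer added; fluorescence read at 360/460 nm Ex/Em.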

T1 sequence (Q13547 whole entry): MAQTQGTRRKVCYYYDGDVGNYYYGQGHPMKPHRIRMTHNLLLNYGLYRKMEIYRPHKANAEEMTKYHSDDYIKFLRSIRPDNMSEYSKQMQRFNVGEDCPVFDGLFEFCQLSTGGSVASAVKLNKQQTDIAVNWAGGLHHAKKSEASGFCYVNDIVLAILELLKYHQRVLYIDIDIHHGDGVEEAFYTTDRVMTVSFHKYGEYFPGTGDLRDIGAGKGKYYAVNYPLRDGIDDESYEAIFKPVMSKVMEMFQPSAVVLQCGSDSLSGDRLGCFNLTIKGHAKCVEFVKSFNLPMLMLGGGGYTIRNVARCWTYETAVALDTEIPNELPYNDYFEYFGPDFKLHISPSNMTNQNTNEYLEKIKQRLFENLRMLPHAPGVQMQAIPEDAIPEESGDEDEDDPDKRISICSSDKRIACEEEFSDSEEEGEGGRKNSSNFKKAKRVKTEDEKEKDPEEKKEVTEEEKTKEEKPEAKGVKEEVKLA

One may read the IC50 as the point on the concentration scale where inhibition reaches its midpoint. On to `O=C(O)c1ccc(N(Cc2ccc(-c3noc(C(F)(F)F)n3)s2)c2cnccn2)nn1` [Example DP, 6-[(Pyrazin-2-yl)({5-[5-(trifluoromethyl)-1,2,4-oxadiazol-3-yl]thiophen-2-yl}methyl)amino]pyridazine-3-carboxylic acid], for which the IC50 in test [1] is over 10000 nM; in test [2], at most 10000 nM; in test [3] it was at most 10000 nM; in test [4], at most 1000 nM; in test [5], at most 10000 nM; in test [6], at most 10000 nM.

`Cn1ccc2c(N(Cc3ccc(-c4noc(C(F)(F)F)n4)s3)c3cnccn3)ncnc21` [Example CM, N-{7-Methyl-7H-pyrrolo[2,3-d]pyrimidin-4-yl}-N-({5-[5-(trifluoromethyl)-1,2,4-oxadiazol-3-yl]thiophen-2-yl}methyl)pyrazin-2-amine]: the half-inhibitory concentration (IC50) in test [1] was over 10000 nM; in test [2] it was at most 10000 nM; in test [3], at most 10000 nM; in test [4] it was at most 10000 nM; in test [5], at most 10000 nM; in test [6], at most 10000 nM.

Turning to `FC(F)(F)c1nc(-c2ccc(CN(c3cnccn3)c3cc(C4CC4)ccn3)s2)no1` [Example AH, N-(4-Cyclopropylpyridin-2-yl)-N-({5-[5-(trifluoromethyl)-1,2,4-oxadiazol-3-yl]thiophen-2-yl}methyl)pyrazin-2-amine], the IC50 in test [1] is over 10000 nM; in test [2], over 10000 nM; in test [3] it was at most 10000 nM; in test [4], at most 10000 nM; in test [5], over 10000 nM; in test [6], over 10000 nM.

Consider `COCc1nccnc1N(Cc1ccc(-c2noc(C(F)(F)F)n2)s1)c1cnccn1` [Example BG, 3-(Methoxymethyl)-N-(pyrazin-2-yl)-N-({5-[5-(trifluoromethyl)-1,2,4-oxadiazol-3-yl]thiophen-2-yl}methyl)pyrazin-2-amine], for which the IC50 in test [1] is over 10000 nM; in test [2], at most 10000 nM; in test [3], at most 1000 nM; in test [4], at most 1000 nM; in test [5], at most 10000 nM; in test [6], at most 10000 nM.

In the case of `Cc1cncnc1N(Cc1ccc(-c2noc(C(F)(F)F)n2)s1)c1cnccn1` [Example CO, 5-Methyl-N-(pyrazin-2-yl)-N-({5-[5-(trifluoromethyl)-1,2,4-oxadiazol-3-yl]thiophen-2-yl}methyl)pyrimidin-4-amine], the half-maximal inhibitory concentration (IC50) is over 10000 nM in test [1]; at most 500 nM in test [2]; at most 1000 nM in test [3]; at most 1000 nM in test [4]; at most 1000 nM in test [5]; at most 10000 nM in test [6].
